Structures are written as SMILES.

The results in this text go back to patent publication US10227350B2 (Gilead Sciences, Inc., priority 2016, dated 2019).

For the assay, the target named is PI3Kβ (Homo sapiens (Human), UniProt P42338). The assay is described as follows: TR-FRET enzymatic activity assay, PI3Kβ. It is filed as biochemical. Particulars: 2× Km ATP, 2 μM PIP2, 30 minutes at 25° C., read-out: IC50-PIP-Beta. The method, boiled down: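 Purified recombinant heterodimeric PI3Kβ; PIP3 formation read by TR-FRET as competition with fluorescent tracer for GRP-1 PH domain binding. Compounds incubated 30 min at 25 °C.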
Sequence of PI3Kβ (P42338 whole entry, the tested form may be a part): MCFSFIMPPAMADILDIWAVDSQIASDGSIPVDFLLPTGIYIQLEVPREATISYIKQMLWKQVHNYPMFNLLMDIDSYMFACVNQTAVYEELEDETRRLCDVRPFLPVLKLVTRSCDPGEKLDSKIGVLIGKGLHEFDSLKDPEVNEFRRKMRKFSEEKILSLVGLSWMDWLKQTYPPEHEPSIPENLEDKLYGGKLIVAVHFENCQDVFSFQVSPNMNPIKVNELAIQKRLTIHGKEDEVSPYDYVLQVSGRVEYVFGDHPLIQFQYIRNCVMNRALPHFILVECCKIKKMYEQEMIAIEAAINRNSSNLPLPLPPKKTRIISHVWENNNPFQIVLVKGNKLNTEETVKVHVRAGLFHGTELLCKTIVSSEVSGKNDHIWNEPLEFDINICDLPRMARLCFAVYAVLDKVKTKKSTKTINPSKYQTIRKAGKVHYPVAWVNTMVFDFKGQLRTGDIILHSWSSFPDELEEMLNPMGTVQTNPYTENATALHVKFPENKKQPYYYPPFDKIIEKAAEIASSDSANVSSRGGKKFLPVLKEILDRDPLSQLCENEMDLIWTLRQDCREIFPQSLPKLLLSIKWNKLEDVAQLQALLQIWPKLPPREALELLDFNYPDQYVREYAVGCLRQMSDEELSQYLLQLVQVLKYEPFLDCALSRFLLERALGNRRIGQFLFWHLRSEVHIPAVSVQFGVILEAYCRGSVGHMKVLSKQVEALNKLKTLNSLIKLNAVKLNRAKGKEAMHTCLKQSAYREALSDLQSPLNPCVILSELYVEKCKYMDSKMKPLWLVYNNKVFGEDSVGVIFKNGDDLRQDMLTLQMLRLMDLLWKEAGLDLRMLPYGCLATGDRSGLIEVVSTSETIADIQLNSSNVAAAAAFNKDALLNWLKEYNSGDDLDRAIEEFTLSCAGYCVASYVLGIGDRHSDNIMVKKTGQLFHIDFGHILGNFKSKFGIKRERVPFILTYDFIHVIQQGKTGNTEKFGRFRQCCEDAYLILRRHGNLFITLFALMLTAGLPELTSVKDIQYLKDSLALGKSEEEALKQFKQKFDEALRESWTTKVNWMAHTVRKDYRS
Sequence of PI3Kβ (P27986 whole entry partner, the tested form may be a part): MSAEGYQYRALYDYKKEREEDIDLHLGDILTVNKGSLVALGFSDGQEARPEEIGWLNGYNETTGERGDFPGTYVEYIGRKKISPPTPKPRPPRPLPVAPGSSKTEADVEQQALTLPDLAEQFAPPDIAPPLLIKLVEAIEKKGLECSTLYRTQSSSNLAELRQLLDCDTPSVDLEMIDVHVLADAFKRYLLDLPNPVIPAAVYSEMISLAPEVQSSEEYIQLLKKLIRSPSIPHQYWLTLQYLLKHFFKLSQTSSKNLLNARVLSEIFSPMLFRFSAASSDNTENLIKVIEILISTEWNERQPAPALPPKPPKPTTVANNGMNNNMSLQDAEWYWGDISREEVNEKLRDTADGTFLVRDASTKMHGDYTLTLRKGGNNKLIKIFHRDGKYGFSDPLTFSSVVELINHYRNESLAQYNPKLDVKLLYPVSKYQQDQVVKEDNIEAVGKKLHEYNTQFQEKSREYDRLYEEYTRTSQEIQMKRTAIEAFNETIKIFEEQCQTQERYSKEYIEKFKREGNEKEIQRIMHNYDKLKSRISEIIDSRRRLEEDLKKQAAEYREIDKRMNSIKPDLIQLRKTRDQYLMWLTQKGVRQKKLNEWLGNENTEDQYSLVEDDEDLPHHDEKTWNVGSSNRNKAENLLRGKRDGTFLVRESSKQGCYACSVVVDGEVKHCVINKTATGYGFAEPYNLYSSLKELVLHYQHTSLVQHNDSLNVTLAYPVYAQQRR
In general, IC50 refers to the concentration that gives 50% inhibition. With `COc1nccc(-c2cc(-c3nnc[nH]3)c3nc(C)n(-c4ccnc5c(F)ccc(F)c45)c3c2)n1` [Example 154, 5,8-difluoro-4-(6-(2-methoxypyrimidin-4-yl)-2-methyl-4-(4H-1,2,4-triazol-3-yl)-1H-benzo[d]imidazol-1-yl)quinoline], the 50% inhibitory concentration (IC50) was determined as 0.009 µM. As for `Cc1cc(-c2cc(-c3nnc[nH]3)c3nc(C)n(-c4ccnc5c(F)ccc(F)c45)c3c2)ncn1` [Example 155, 5,8-difluoro-4-(2-methyl-6-(6-methylpyrimidin-4-yl)-4-(4H-1,2,4-triazol-3-yl)-1H-benzo[d]imidazol-1-yl)quinoline], the figure is 0.062 µM; as for `Cc1nccc(-c2cc(-c3nnc[nH]3)c3nc(C)n(-c4ccnc5c(F)ccc(F)c45)c3c2)n1` [Example 156, 5,8-difluoro-4-(2-methyl-6-(2-methylpyrimidin-4-yl)-4-(4H-1,2,4-triazol-3-yl)-1H-benzo[d]imidazol-1-yl)quinoline], 0.012 µM. Next, `Cc1nc2c(C(N)=O)cc(-c3ncnc(N)c3C#N)cc2n1-c1ccnc2c(F)ccc(F)c12` [Example 157, 6-(6-amino-5-cyanopyrimidin-4-yl)-1-(5,8-difluoroquinolin-4-yl)-2-methyl-1H-benzo[d]imidazole-4-carboxamide]: 0.46 µM; `Cc1nc2c(-c3nnc[nH]3)cc(-c3ccnc(Cl)c3)cc2n1-c1ccnc2c(F)ccc(F)c12` [Example 158, 4-(6-(2-chloropyridin-4-yl)-2-methyl-4-(4H-1,2,4-triazol-3-yl)-1H-benzo[d]imidazol-1-yl)-5,8-difluoroquinoline]: 0.007 µM.

Take `Cc1nc2c(-c3nnc[nH]3)cc(-c3ccnc(F)c3)cc2n1-c1ccnc2c(F)ccc(F)c12` [Example 159, 5,8-difluoro-4-(6-(2-fluoropyridin-4-yl)-2-methyl-4-(4H-1,2,4-triazol-3-yl)-1H-benzo[d]imidazol-1-yl)quinoline]: the IC50 was 0.005 µM. Next, `Cc1nc2c(-c3nnc[nH]3)cc(-c3ccnc(N)c3F)cc2n1-c1ccnc2cc(F)cc(F)c12` [Example 160, 4-(1-(5,7-difluoroquinolin-4-yl)-2-methyl-4-(4H-1,2,4-triazol-3-yl)-1H-benzo[d]imidazol-6-yl)-3-fluoropyridin-2-amine]: 0.007 µM; `Cc1nc2c(-c3nnc[nH]3)cc(-c3ccnc(N)c3F)cc2n1-c1ccnc2c(Cl)ccc(Cl)c12` [Example 161, 4-(1-(5,8-dichloroquinolin-4-yl)-2-methyl-4-(4H-1,2,4-triazol-3-yl)-1H-benzo[d]imidazol-6-yl)-3-fluoropyridin-2-amine]: 0.006 µM; `Nc1nccc(-c2cc(-c3nnc[nH]3)c3ncn(-c4cc(N5CCNCC5)nc5ccccc45)c3c2)c1F` [Example 162, 3-fluoro-4-(1-(2-(piperazin-1-yl)quinolin-4-yl)-4-(4H-1,2,4-triazol-3-yl)-1H-benzo[d]imidazol-6-yl)pyridin-2-amine]: 0.01 µM. Next, `Nc1nccc(-c2ccc3ncn(-c4cc(N5CCNCC5)nc5ccccc45)c3c2)c1F` [Example 163, 3-fluoro-4-(1-(2-(piperazin-1-yl)quinolin-4-yl)-1H-benzo[d]imidazol-6-yl)pyridin-2-amine]: 0.12 µM; `Fc1nccc(-c2cc(-c3nnc[nH]3)c3ncn(-c4cc(N5CCNCC5)nc5ccccc45)c3c2)c1F` [Example 164, 4-(6-(2,3-difluoropyridin-4-yl)-4-(4H-1,2,4-triazol-3-yl)-1H-benzo[d]imidazol-1-yl)-2-(piperazin-1-yl)quinoline]: 0.01 µM. As for `Fc1nccc(-c2ccc3ncn(-c4cc(N5CCNCC5)nc5ccccc45)c3c2)c1F` [Example 165, 4-(6-(2,3-difluoropyridin-4-yl)-1H-benzo[d]imidazol-1-yl)-2-(piperazin-1-yl)quinoline], the figure is 0.48 µM. For `N#Cc1cc(-c2cc(-c3nnc[nH]3)c3ncn(-c4cc(-c5cn[nH]c5)nc5ccccc45)c3c2)ccn1` [Example 166, 4-(1-(2-(1H-pyrazol-4-yl)quinolin-4-yl)-4-(4H-1,2,4-triazol-3-yl)-1H-benzo[d]imidazol-6-yl)picolinonitrile], the IC50 amounted to 0.07 µM. Take `N#Cc1cc(-c2cc(-c3nnc[nH]3)c3ncn(-c4cc(N5CCNCC5)nc5ccccc45)c3c2)ccn1` [Example 167, 4-(1-(2-(piperazin-1-yl)quinolin-4-yl)-4-(4H-1,2,4-triazol-3-yl)-1H-benzo[d]imidazol-6-yl)picolinonitrile]: the IC50 is 0.01 µM.
